Laboratory results from ChEMBL document CHEMBL1806355, “Synthesis and evaluation of 1-cyclopropyl-2-thioalkyl-8-methoxy fluoroquinolones” (2011).
≈ marks a conversion by molar mass, not a printed value. Calls of active or inactive are those of the source. The rule behind the calls is not given here.

Key:
[1] = test system: Mycolicibacterium smegmatis; test: Antibacterial activity against Mycobacterium smegmatis KD1163; type: functional
Escherichia coli [2] = test: Antibacterial activity against tolC knockout Escherichia coli KD1397; type: functional
Escherichia coli [3] = test: Antibacterial activity against Escherichia coli KD65; type: functional
[4] = Inhibition of DNA gyrase

| Compound | MIC [1] [µg/mL] | MIC (Escherichia coli [2]) [µg/mL] | MIC (Escherichia coli [3]) [µg/mL] | inhibition [4] |
| --- | --- | --- | --- | --- |
| CC1Sc2c(C(=O)O)c(=O)c3cc(F)c(N4CCNCC4)cc3n21 (stereo unspecified) [ULIFLOXACIN] | 3.13 (≈ 8.96 µM) | 0.016 (≈ 0.0458 µM) | 0.062 (≈ 0.177 µM) |  |
| CCSc1c(C(=O)O)c(=O)c2cc(F)c(N3C[C@@H]4CCCN[C@@H]4C3)c(OC)c2n1C1CC1 | 50 (≈ 108 µM) | > 50 | > 50 | Active |
| O=c1ccn(C2CC2)c2cc(N3CCNCC3)c(F)cc12 | 6.25 (≈ 21.8 µM) | 1.56 (≈ 5.43 µM) | 50 (≈ 174 µM) |  |
| O=C(O)c1cn(C2CC2)c2cc(N3CCNCC3)c(F)cc2c1=O [CIPROFLOXACIN] | 0.156 (≈ 0.471 µM) |  | 0.04 (≈ 0.121 µM) |  |
| CCSc1cc(=O)c2cc(F)c(N3C[C@@H]4CCCN[C@@H]4C3)c(OC)c2n1C1CC1 | > 200 | 100 (≈ 239 µM) | > 200 | Active |
| CC1Sc2cc(=O)c3cc(F)c(N4CCNCC4)cc3n21 (stereo unspecified) [DESCARBOXYULIFLOXACIN] | 200 (≈ 655 µM) | 200 (≈ 655 µM) | > 200 |  |
| COc1c(N2C[C@@H]3CCCN[C@@H]3C2)c(F)cc2c(=O)ccn(C3CC3)c12 | > 200 | 100 (≈ 280 µM) | > 200 |  |
| CCSc1c(C(=O)O)c(=O)c2cc(F)c(N3CCNCC3)c(OC)c2n1C1CC1 | > 200 | 12.5 (≈ 29.7 µM) | 200 (≈ 475 µM) | Active |
| COc1c(N2C[C@@H]3CCCN[C@@H]3C2)c(F)cc2c(=O)c(C(=O)O)cn(C3CC3)c12 [MOXIFLOXACIN] | 0.08 (≈ 0.199 µM) | 0.004 (≈ 0.00996 µM) | 0.156 (≈ 0.389 µM) |  |
| COc1c(N2C[C@@H]3CCCN[C@@H]3C2)c(F)cc2c(=O)cc(SC(C)C)n(C3CC3)c12 | 50 (≈ 116 µM) | 50 (≈ 116 µM) | > 50 | Active |
| CCSc1cc(=O)c2cc(F)c(N3CCNCC3)c(OC)c2n1C1CC1 | > 50 | 25 (≈ 66.2 µM) | > 50 | Active |
| COc1c(N2CCNCC2)c(F)cc2c(=O)cc(SC(C)C)n(C3CC3)c12 | > 50 | > 50 | > 50 | Active |
